Several values for one entry are separate records, joined by “and”; a condition that tells them apart may be missing. Identical values can stand only once.
B1: PGT2 (Malus toringoides) (protein)
chain: MEATAIVLYPSPLIGHLVSMVELGKLILTRHPSLCIHILITTPPYRANDTDSYITSVSAANPSLIFHHLPTISLPPSLASSRNHEILAFELAPLYNPNVHQALVSISHNFSIKAFVMDFFCYVGLPVATELNIPSYFFFTSSANTLASSLYLPTLHNIIDKSLKDLNILLNIPGVPPMPSSDMPQPTLDRNQKVYEHVQGSSKQFPKSAGIIVNTFESLEPRALRAIWDGLCLPENVPTPPVYPIGPLIVSHGGGGRGAECLKWLDSQPSGSVVFLCFGSLGLFSKEQLKEIAIGLENSGHRFLWVVRNPPAQNQIGLDIKESDPELKSLLPDGFLDRTKDRGLVVKSWAPQAAVLNHNSVGGFVSHCGWNSVLESVCAGVPIVAWPLYAEQRFNRVVLVKEIKIAMPMNESEDGFVRAAEVEKRITELMDSEEGASIRKRTKDLQNNAHAALGETGSSGVALTKLLEFWGKTC

Assays:
[1] = system: recombinant PGT2 cloned from M. toringoides; test: Substrate specificity of recombinant PGT2, UDP-glucoside as sugar donor, products determined by LC-MS/MS; assay type: biochemical; conditions: amount of product formed relative to conversion of phloretin to trilobatin set at 100%
Experimental: The products of each reaction were determined by LC-MS/MS. […] Quercetin-3-O-glucoside was detected as a reaction product using quercetin (FIG. 8A-F) with a lower conversion rate of 9.1% (Table 7).

[2] = Isosweetness comparison test between trilobatin and sucrose (sensory panel); assay type: in vivo; conditions: n=5 participants
Experimental: Five participants with high acuity for trilobatin in the triangle test were selected to perform the isosweetness comparison test between trilobatin and sucrose. Each participant was given one trilobatin solution and eight sucrose solutions at different concentrations to taste. Solutions were prepared as described above for the apple leaf teas. The trilobatin solutions were presented at 12.3, 18.5, 27.8 and 41.7 mg per 100 ml, while the sucrose solutions were presented at 296.3, 444.4, 592.6, 666.7, 888.9, 1000, 1333.3 and 2000 mg per 100 ml.

[3] = Jia et al., 2008; cited from earlier work
[4] = substrate: O=C(CCc1ccc(O)cc1)c1c(O)cc(O)cc1O; test: Km/Vmax determination for recombinant PGT2 (glycosyltransferase activity assay, HPLC); assay type: biochemical, M. toringoides; conditions: other: phloretin 4-500 μM, fixed UDP-glucose 500 μM, pH 9.0, 0.1 M Tris-HCl, 40° C., 10 min

Row | Molecule | Conversion (%) [1] | further results
1 | O=C(O)/C=C/c1ccc(O)cc1 [4-coumaric acid] | 0% | 
2 | O=C(CCc1ccc(O)cc1)c1c(O)cc(O[C@@H]2O[C@H](CO)[C@@H](O)[C@H](O)[C@H]2O)cc1O [trilobatin, 1-[2,6-dihydroxy-4-[(2S,3R,4S,5S,6R)-3,4,5-trihydroxy-6-(hydroxymethyl)oxan-2-yl]oxyphenyl]-3-(4-hydroxyphenyl)propan-1-one] | 0% | Isosweetness (trilobatin vs sucrose) ([2]; R^2=0.98, mean±SE): 35.2+1.66; sweeter than sucrose ([2]; trilobatin purified from leaves of crabapple hybrid ‘Adams’): ~35 fold; sweeter than sucrose (reported) [3]: ~100 ×; sweetness detection threshold [3]: 3 to 200 mg/L
3 | COc1ccc([C@@H]2CC(=O)c3c(O)cc(O[C@@H]4O[C@H](CO)[C@@H](O)[C@H](O)[C@H]4O[C@@H]4O[C@@H](C)[C@H](O)[C@@H](O)[C@H]4O)cc3O2)cc1O [neohesperidin] | 0% | 
4 | O=C1C[C@@H](c2ccc(O)cc2)Oc2cc(O)cc(O)c21 [naringenin] | 0% | 
5 | O=C(/C=C/c1ccc(O)c(O)c1)O[C@@H]1C[C@](O)(C(=O)O)C[C@@H](O)[C@H]1O [chlorogenic acid] | 0% | 
6 | O=c1c(O)c(-c2ccc(O)c(O)c2)oc2cc(O)cc(O)c12 [quercetin] | 9.1% and 9.1 ± 0.1% | 
7 | O=C(CCc1ccc(O)c(O)c1)c1c(O)cc(O[C@@H]2O[C@H](CO)[C@@H](O)[C@H](O)[C@H]2O)cc1O [sieboldin, 3-hydroxyphloretin-4′-O-glucoside] | 0% | 
8 | O=C(O)/C=C/c1ccc(O)c(O)c1 [caffeic acid] | 0% | 
9 | O=C(CCc1ccc(O)c(O)c1)c1c(O)cc(O)cc1O [3-OH phloretin] | 58.7 ± 2.3% | 
10 | O=C(CCc1ccc(O)cc1)c1c(O)cc(O)cc1O [phloretin, 3-(4-hydroxyphenyl)-1-(2,4,6-trihydroxyphenyl)propan-1-one] | 100.0 ± 6.1% | 
11 | B1 |  | Km [4]: 18.0 ± 6.7 µM; Vmax [4]: 1.85 ± 0.17 nmol/min

— patent US20230114811A1, “GLYCOSYLTRANSFERASES, POLYNUCLEOTIDES ENCODING THESE AND METHODS OF USE” (THE NEW ZEALAND INSTITUTE FOR PLANT AND FOOD RESEARCH …, priority 2020, published 2023)
